According to patent US10597388B2, “Pyridazinone herbicides” (FMC CORPORATION, priority 2014, dated 2020):

Tests used:
Experiment in all cases: Test C greenhouse herbicide test, pre- and postemergence
Format in all cases: in vivo
[1] = test system: ragweed (common ragweed, Ambrosia elatior)
Procedure, shortened: (§1)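 Percent-control ratings (0 none, 100 complete) came from visual comparison with controls held alongside in the greenhouse for 13–15 d. Treatments covered soil application at sowing and foliar application to young plants 2–18 cm tall.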

[2] = test system: wheat (winter wheat, Triticum aestivum)
Procedure, shortened: as §1

[3] = test system: crabgrass, large (large crabgrass, Digitaria sanguinalis)
Procedure, shortened: as §1

[4] = test system: blackgrass (Alopecurus myosuroides)
Procedure, shortened: as §1

[5] = test system: foxtail, giant (giant foxtail, Setaria faberii)
Procedure, shortened: as §1

[6] = test system: oilseed rape (Brassica napus)
Procedure, shortened: as §1

[7] = test system: waterhemp (common waterhemp, Amaranthus rudis)
Procedure, shortened: as §1

[8] = test system: barnyardgrass (Echinochloa crus-galli)
Procedure, shortened: as §1

[9] = test system: galium (catchweed bedstraw, Galium aparine)
Procedure, shortened: as §1

[10] = test system: morningglory (Ipomoea coccinea)
Procedure, shortened: as §1

[11] = test system: pigweed (Amaranthus retroflexus)
Procedure, shortened: as §1

corn (Zea mays) = test system: corn (Zea mays)
Procedure, shortened: as §1

[12] = test system: velvetleaf (Abutilon theophrasti)
Procedure, shortened: as §1

[13] = test system: ryegrass, Italian (Italian ryegrass, Lolium multiflorum)
Procedure, shortened: as §1

[14] = test system: lambsquarters (Chenopodium album)
Procedure, shortened: as §1

[15] = Postemergence, 31 g ai/ha, 0 to 100 scale (0 no effect, 100 complete control)
[16] = Postemergence, 125 g ai/ha, scale 0 to 100, 0 is no effect, 100 is complete control
[17] = Postemergence, 250 g ai/ha, scale 0 to 100, 0 no effect, 100 complete control, 13 to 15 d
[18] = Preemergence, 31 g ai/ha, scale 0 to 100, 0 is no effect, 100 is complete control
[19] = Preemergence, 62 g ai/ha, scale 0 to 100, 0 is no effect, 100 is complete control
[20] = Preemergence, 125 g ai/ha, scale 0 to 100, 0 is no effect, 100 is complete control
[21] = Preemergence, 250 g ai/ha, scale 0 to 100, 0 no effect, 100 complete control
[22] = postemergence, 62 g ai/ha, scale 0 to 100, 0 no effect, 100 complete control

SMILES: Cc1cc2ccccc2c(-c2c(O)c(C)nn(C)c2=O)c1C [Compound 34]
- Ragweed plant response rating [1, 15]: 85
- Plant response rating, Ragweed [1, 16]: 95
- Plant response rating, Ragweed [1, 17]: 95
- Plant response rating, Ragweed [1, 18]: 80
- Plant response rating, Ragweed [1, 19]: 80
- Plant response rating, Ragweed [1, 20]: 90
- Ragweed plant response rating [1, 21]: 95
- Ragweed plant response rating [1, 22]: 98
- Wheat plant response rating [2, 15]: 5
- Plant response rating, Wheat [2, 16]: 10
- Plant response rating, Wheat [2, 17]: 0
- Plant response rating, Wheat [2, 19]: 0
- Plant response rating, Wheat [2, 20]: 5
- Wheat plant response rating [2, 21]: 25
- Wheat plant response rating [2, 22]: 5
- Crabgrass, Large plant response rating [3, 15]: 5
- Plant response rating, Crabgrass, Large [3, 16]: 20
- Plant response rating, Crabgrass, Large [3, 17]: 25
- Plant response rating, Crabgrass, Large [3, 18]: 0
- Plant response rating, Crabgrass, Large [3, 19]: 10
- Plant response rating, Crabgrass, Large [3, 20]: 25
- Crabgrass, Large plant response rating [3, 21]: 30
- Crabgrass, Large plant response rating [3, 22]: 10
- Blackgrass plant response rating [4, 15]: 10
- Plant response rating, Blackgrass [4, 16]: 35
- Plant response rating, Blackgrass [4, 17]: 60
- Plant response rating, Blackgrass [4, 18]: 5
- Plant response rating, Blackgrass [4, 19]: 50
- Plant response rating, Blackgrass [4, 20]: 85
- Blackgrass plant response rating [4, 21]: 90
- Blackgrass plant response rating [4, 22]: 10
- Foxtail, Giant plant response rating [5, 15]: 10
- Plant response rating, Foxtail, Giant [5, 16]: 25
- Plant response rating, Foxtail, Giant [5, 17]: 35
- Plant response rating, Foxtail, Giant [5, 18]: 0
- Plant response rating, Foxtail, Giant [5, 19]: 65
- Plant response rating, Foxtail, Giant [5, 20]: 75
- Foxtail, Giant plant response rating [5, 21]: 70
- Foxtail, Giant plant response rating [5, 22]: 20
- Oilseed Rape plant response rating [6, 15]: 30
- Plant response rating, Oilseed Rape [6, 16]: 50
- Plant response rating, Oilseed Rape [6, 17]: 20
- Plant response rating, Oilseed Rape [6, 18]: 10
- Plant response rating, Oilseed Rape [6, 19]: 25
- Plant response rating, Oilseed Rape [6, 20]: 90
- Oilseed Rape plant response rating [6, 21]: 90
- Oilseed Rape plant response rating [6, 22]: 30
- Waterhemp plant response rating [7, 15]: 85
- Plant response rating, Waterhemp [7, 16]: 90
- Plant response rating, Waterhemp [7, 17]: 98
- Plant response rating, Waterhemp [7, 19]: 100
- Plant response rating, Waterhemp [7, 20]: 100
- Waterhemp plant response rating [7, 21]: 100
- Waterhemp plant response rating [7, 22]: 85
- Barnyardgrass plant response rating [8, 15]: 20
- Plant response rating, Barnyardgrass [8, 16]: 35
- Plant response rating, Barnyardgrass [8, 17]: 35
- Plant response rating, Barnyardgrass [8, 18]: 60
- Plant response rating, Barnyardgrass [8, 19]: 55
- Plant response rating, Barnyardgrass [8, 20]: 65
- Barnyardgrass plant response rating [8, 21]: 75
- Barnyardgrass plant response rating [8, 22]: 25
- Galium plant response rating [9, 15]: 90
- Plant response rating, Galium [9, 16]: 95
- Plant response rating, Galium [9, 17]: 95
- Plant response rating, Galium [9, 18]: 95
- Plant response rating, Galium [9, 19]: 95
- Plant response rating, Galium [9, 20]: 90
- Galium plant response rating [9, 21]: 100
- Galium plant response rating [9, 22]: 95
- Morningglory plant response rating [10, 15]: 85
- Plant response rating, Morningglory [10, 16]: 95
- Plant response rating, Morningglory [10, 17]: 98
- Plant response rating, Morningglory [10, 18]: 70
- Plant response rating, Morningglory [10, 19]: 80
- Plant response rating, Morningglory [10, 20]: 85
- Morningglory plant response rating [10, 21]: 95
- Morningglory plant response rating [10, 22]: 98
- Pigweed plant response rating [11, 15]: 90
- Plant response rating, Pigweed [11, 16]: 80
- Plant response rating, Pigweed [11, 17]: 98
- Plant response rating, Pigweed [11, 18]: 100
- Plant response rating, Pigweed [11, 19]: 100
- Plant response rating, Pigweed [11, 20]: 100
- Pigweed plant response rating [11, 21]: 100
- Pigweed plant response rating [11, 22]: 85
- Corn plant response rating (corn (Zea mays); [15]): 0
- Plant response rating, Corn (corn (Zea mays); [16]): 5
- Plant response rating, Corn (corn (Zea mays); [17]): 5
- Plant response rating, Corn (corn (Zea mays); [18]): 0
- Plant response rating, Corn (corn (Zea mays); [19]): 0
- Plant response rating, Corn (corn (Zea mays); [20]): 10
- Corn plant response rating (corn (Zea mays); [21]): 0
- Corn plant response rating (corn (Zea mays); [22]): 5
- Velvetleaf plant response rating [12, 15]: 50
- Plant response rating, Velvetleaf [12, 16]: 100
- Plant response rating, Velvetleaf [12, 17]: 90
- Plant response rating, Velvetleaf [12, 19]: 80
- Plant response rating, Velvetleaf [12, 20]: 85
- Velvetleaf plant response rating [12, 21]: 98
- Velvetleaf plant response rating [12, 22]: 80
- Ryegrass, Italian plant response rating [13, 15]: 80
- Plant response rating, Ryegrass, Italian [13, 16]: 90
- Plant response rating, Ryegrass, Italian [13, 17]: 90
- Plant response rating, Ryegrass, Italian [13, 18]: 45
- Plant response rating, Ryegrass, Italian [13, 19]: 85
- Plant response rating, Ryegrass, Italian [13, 20]: 85
- Ryegrass, Italian plant response rating [13, 21]: 95
- Ryegrass, Italian plant response rating [13, 22]: 80
- Lambsquarters plant response rating [14, 15]: 90
- Plant response rating, Lambsquarters [14, 16]: 95
- Plant response rating, Lambsquarters [14, 17]: 100
- Plant response rating, Lambsquarters [14, 18]: 80
- Plant response rating, Lambsquarters [14, 19]: 90
- Plant response rating, Lambsquarters [14, 20]: 80
- Lambsquarters plant response rating [14, 21]: 75
- Lambsquarters plant response rating [14, 22]: 90
